Tests used:
[1] = test system: LRP-Gal4/VP16; experiment: LRP-Gal4/VP16 luciferase reporter gene assay in transfected 293 cells; format: cell-based, human
Method: (§1) Cell Culture and transfection of 293 cells: The human embryonic kidney cell line HEK 293 (CRL-1573, ATCC) was maintained in monolayer culture at 37° C. under a 8% CO2 atmosphere. On day 0 cells were set up at a density of 5×105 per 60 mm dish in Dulbecco's Modified Eagle's Medium (low glucose) containing 100 U/ml penicillin, 100 ug/ml streptomycin sulfate and 10% (v/v) FCS. On day one cells were transfected by calcium phosphate precipitation (MBS Kit™, Stratagene, La Jolla, Calif., used according to manufacturers' instructions) with 9 ug of the pG5 E1B-Luc plasmid, 0.5 ug of pCMV-b-Gal for internal control of transfection efficiency, the respective receptor construct and expression vectors for different adapter proteins or other components as indicated in the text. On day two treatment with TPA or other reagents was started as described above and cells were harvested 24 h to 48 h later.
Reporter gene assays: 293 cells were harvested for reporter gene assays 48 h after transfection. Their culture medium was removed and the cells were washed once with PBS. After addition of 400 ul “Reporter Lysis Buffer” (Promega, Madison, Wis.) per 60mm dish cells were processed according to manufacturers' instructions. Luciferase gene expression was analyzed using the “Luciferase Assay System” (Promega, Madison, Wis.). A 10 s integral measurement of light emission from each reaction mixture was performed in a tube luminometer (Octopump II, MOM Instruments).
β-Gal assays for internal control of […] were carried out with an aliquot of the cell lysates prepared for the luciferase assay using the ‘Chemiluminescent b-Gal Detection Kit” (Clontech, Palo Alto, Calif.). Normalization of luciferase activity to b-Gal activity was done by dividing RLU values obtained with the first assay by those from the latter reaction. All transfections for reporter gene assays were repeated in at least two independent experiments.
Experimental Strategy. The Gal4/VP16 fusion protein, which consists of the DNA binding domain of the yeast Gal4 transcription factor and of the transactivating domain of the Herpes simplex virus protein VP16, is able to drive transcription from a luciferase reporter plasmid that contains five Gal4 binding elements in front of the adenoviral E1B minimal promoter and the firefly luciferase gene. […]
Treatment of 293 Cells with the Proteasome Inhibitor Lactacystin Stabilizes the Intracellular LRP-Cleavage Product. […] Subsequently cell lysates were prepared and examined for luciferase activity. β-Gal activity was measured to correct for transfection efficiency. […]

[2] = test system: LRP; experiment: Endogenous LRP levels by Western blotting in untransfected 293 cells; format: cell-based, human
Method: (§2) SDS-Page and immunoblot analysis: SDS-Page and immunoblotting were performed according to standard procedures. Briefly, equal amounts of protein as determined with the Coomassie Plus Protein Reagent (Pierce, Rockford, Ill.) were loaded on 4–12% SDS PA gels. After electrophoresis and protein transfer on a PVDF membrane immunoblot, analysis was carried out with rabbit polyclonal antibodies against a C-terminal fragment of LRP. Bound antibodies were visualized with peroxidase-conjugated anti-rabbit IgG by using the SuperSignal CL-HRP Substrate (Pierce, Rockford, Ill.) according to the manufacturer's instructions.
(§3) Then cell lysates were prepared and analyzed by Western Blotting. The antibody used for immunostaining is directed against LRP's C-terminus.
TPA Treatment Leads To Decreased LRP Levels in 293 Cells. […] Then cell lysates were prepared and analyzed by Western Blotting. The antibody used for immunostaining is directed against LRP's C-terminus.

[3] = test system: pMstGV-APP construct; experiment: APP-Gal4/VP16 (pMstGV-APP) luciferase reporter gene assay in transfected 293 cells; format: cell-based, human; conditions: 100 nM TPA for 24 h
Method: as §1
(§4) Reporter gene assays: 293 cells were harvested for reporter gene assays 48 h after transfection. Their culture medium was removed and the cells were washed once with PBS. After addition of 400 ul “Reporter Lysis Buffer” (Promega, Madison, Wis.) per 60mm dish cells were processed according to manufacturers' instructions. Luciferase gene expression was analyzed using the “Luciferase Assay System” (Promega, Madison, Wis.). […]

[4] = test system: LRP; experiment: Endogenous LRP levels by Western blotting in MEF-1 cells; format: cell-based, mouse
Method: as §2, §3
Decrease of LRP Levels after TPA Treatment is Time-Dependent. […] Then cell lysates were prepared and used for SDS-PAGE and Western Blotting. LRP was stained with an antibody directed against its cytoplasmic tail.

[5] = test system: pMstGV-LDL-R construct; experiment: LDL-R-Gal4/VP16 (pMstGV-LDL-R) luciferase reporter gene assay in transfected 293 cells; format: cell-based, human; conditions: 100 nM TPA for 24 h
Method: as §1, §4

CCCCCCCCCCCCCC(=O)O[C@@H]1[C@@H](C)[C@@]2(O)[C@@H](C=C(CO)C[C@]3(O)C(=O)C(C)=C[C@@H]23)[C@@H]2C(C)(C)[C@]12OC(C)=O [TPA, Phorbol 12-myristate 13-acetate]
luciferase activity, elevation under stimulated versus unstimulated conditions ([1]; 100 nM TPA for 24 h, pcDNA3.1-LRP-Gal4/VP16): up to 10 fold | corrected luciferase activity (intracellular/intramembraneous LRP cleavage) versus unstimulated cells ([1]; 100 nM TPA, time periods of 12, 16, 20 and 24, pcDNA3.1-LRP-Gal4/VP16): linear increase | effect on endogenous LRP levels ([2]; 100 nM TPA for 24 h or time indicated, untransfected 293 cells): Lowers Endogenous LRP Levels | decrease of cellular LRP levels ([2]; 100 nM TPA, various time periods up to 48 h, Western blot, antibody against LRP C-terminus, text names 293 and MEF-1 cells, heading 293): ≤ 90% | luciferase activity, stimulated versus unstimulated [3]: equivalent elevated activity under both stimulated and unstimulated conditions | effect on endogenous LRP levels ([4]; 100 nM TPA for 24 h or time indicated): Lowers Endogenous LRP Levels | decrease of LRP levels, time course ([4]; TPA for 0.5, 1.5, 5, 5, 6 and 24 h): Time-Dependent | luciferase activity, stimulated versus unstimulated [5]: negligible activity under stimulated and unstimulated conditions

CC(=O)N[C@@H](CSC(=O)[C@]1([C@@H](O)C(C)C)NC(=O)[C@H](C)[C@@H]1O)C(=O)O [lactacystin, Lactacystin]
luciferase signal enhancement (stabilization of intracellular LRP-cleavage product) ([1]; 10 uM lactacystin for 24 h): about 25 fold | luciferase signal enhancement (stabilization of intracellular LRP-cleavage product) ([1]; 50 uM lactacystin for 24 h): about 25 fold

Reference: patent US7192714B2, “LDL receptor signaling assays” (Board of Regents, The University of Texas System, priority 2001, dated 2007)
